Experimental data as given in ChEMBL document CHEMBL1154012, “Synthesis and SAR of novel tricyclic quinoxalinone inhibitors of poly(ADP-ribose)polymerase-1 (PARP-1)” (Bioorg Med Chem Lett, 2009).

Assays:
[1] = target: T1, Poly [ADP-ribose] polymerase 1 (Homo sapiens, UniProt P09874)
Description: Inhibition of PARP1 by microplate scintillation counting

[2] = target: T1, Poly [ADP-ribose] polymerase 1; remark: listed apart in the source
Description: Inhibition of PARP1 in human C41 cells by DAPI staining-based FITC analysis

T1 sequence (P09874 whole entry): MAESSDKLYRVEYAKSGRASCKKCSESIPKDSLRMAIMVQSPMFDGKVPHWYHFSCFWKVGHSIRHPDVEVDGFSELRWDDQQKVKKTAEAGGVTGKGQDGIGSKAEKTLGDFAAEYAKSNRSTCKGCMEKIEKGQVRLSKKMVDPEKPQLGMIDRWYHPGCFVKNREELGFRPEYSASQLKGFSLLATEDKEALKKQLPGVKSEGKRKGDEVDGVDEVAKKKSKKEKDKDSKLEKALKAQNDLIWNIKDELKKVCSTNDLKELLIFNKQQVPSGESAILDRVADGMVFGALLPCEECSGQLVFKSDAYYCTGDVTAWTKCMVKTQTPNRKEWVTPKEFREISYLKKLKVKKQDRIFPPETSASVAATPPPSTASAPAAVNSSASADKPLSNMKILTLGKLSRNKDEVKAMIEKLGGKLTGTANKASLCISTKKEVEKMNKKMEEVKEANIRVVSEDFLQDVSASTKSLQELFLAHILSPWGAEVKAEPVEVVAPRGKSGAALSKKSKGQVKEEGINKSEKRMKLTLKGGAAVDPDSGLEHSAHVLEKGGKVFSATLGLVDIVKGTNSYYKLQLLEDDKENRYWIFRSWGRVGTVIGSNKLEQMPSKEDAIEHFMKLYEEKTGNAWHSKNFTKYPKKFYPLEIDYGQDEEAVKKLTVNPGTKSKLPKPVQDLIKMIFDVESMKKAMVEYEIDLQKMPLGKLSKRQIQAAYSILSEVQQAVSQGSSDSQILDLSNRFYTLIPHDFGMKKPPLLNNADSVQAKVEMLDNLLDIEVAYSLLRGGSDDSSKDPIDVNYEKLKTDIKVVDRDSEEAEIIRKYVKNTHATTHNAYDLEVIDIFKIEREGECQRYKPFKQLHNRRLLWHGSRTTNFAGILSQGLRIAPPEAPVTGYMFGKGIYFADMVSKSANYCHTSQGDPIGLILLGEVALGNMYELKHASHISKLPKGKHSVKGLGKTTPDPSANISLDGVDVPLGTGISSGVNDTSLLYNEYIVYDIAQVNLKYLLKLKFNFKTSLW

Compound | Ki [1] [nM] | EC50 [2] [nM]
CN(C)Cc1ccc2c(c1)NC(=O)C1CCCN21 (stereo not drawn) | 190 | 646
O=c1[nH]c2ccc(CNC3CC3)cc2n2cccc12 | 31 | 25
O=c1[nH]c2ccc(CN3CCCCC3)cc2n2cccc12 | – | 31
O=c1[nH]c2cc(CNCc3ccccc3)ccc2n2cccc12 | 161 | 164
O=c1[nH]c2cc(CN3CCCC3)ccc2n2cccc12 | – | 6
